In ChEMBL document CHEMBL5465560, “Selectivity Literature for EUbOPEN Chemogenomic Library” (2024):
One block for each molecule: values may come before it.

Key:
[1] = target: cGMP-inhibited 3',5'-cyclic phosphodiesterase 3A (Homo sapiens, UniProt Q14432); test: Selectivity interaction (Eurofins safety panel) EUB0001564a PDE3A; settings: at 10 µM
[2] = test system: Mast/stem cell growth factor receptor Kit (Homo sapiens), P10721 [V559D]; settings: at 10 µM
[3] = target: T1, G protein-coupled receptor kinase 3 (Homo sapiens) (UniProt P35626); test: Selectivity interaction (KinomeScan (DiscoverX)) EUB0001079a ADRBK2; settings: at 1 µM
T1 sequence (whole entry): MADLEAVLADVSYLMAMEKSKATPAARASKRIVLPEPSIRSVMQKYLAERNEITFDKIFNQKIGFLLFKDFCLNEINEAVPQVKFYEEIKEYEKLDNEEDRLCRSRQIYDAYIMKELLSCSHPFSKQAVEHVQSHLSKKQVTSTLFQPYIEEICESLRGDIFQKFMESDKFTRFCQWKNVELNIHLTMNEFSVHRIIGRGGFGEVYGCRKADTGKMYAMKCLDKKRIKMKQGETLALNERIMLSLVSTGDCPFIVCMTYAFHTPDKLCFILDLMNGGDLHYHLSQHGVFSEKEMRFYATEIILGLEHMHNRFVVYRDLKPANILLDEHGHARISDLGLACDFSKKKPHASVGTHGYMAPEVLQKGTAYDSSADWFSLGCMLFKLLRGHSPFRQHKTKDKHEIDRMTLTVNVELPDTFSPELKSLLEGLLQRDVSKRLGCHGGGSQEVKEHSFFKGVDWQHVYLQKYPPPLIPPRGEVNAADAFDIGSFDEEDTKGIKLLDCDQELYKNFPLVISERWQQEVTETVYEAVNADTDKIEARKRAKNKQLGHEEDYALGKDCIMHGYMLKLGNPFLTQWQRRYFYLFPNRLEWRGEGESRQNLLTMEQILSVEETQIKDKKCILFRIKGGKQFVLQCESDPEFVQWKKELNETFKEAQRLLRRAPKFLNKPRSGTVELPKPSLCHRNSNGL

[4] = target: Serine/threonine-protein kinase Chk2 (Homo sapiens) (UniProt O96017); test: Selectivity interaction (Millipore kinase profiler) EUB0000124b CHEK2; settings: at 10 µM
[5] = target: Insulin-like growth factor 1 receptor (Homo sapiens, UniProt P08069); test: Selectivity interaction (SelectScreen profiling (Invitrogen)) EUB0000607a IGF1R; settings: at 2 µM
[6] = target: Protein kinase C theta type (Homo sapiens, UniProt Q04759); test: Selectivity interaction (SelectScreen profiling (Invitrogen)) EUB0000607a PRKCQ; settings: at 2 µM
[7] = target: G protein-coupled receptor kinase 4 (Homo sapiens) (UniProt P32298); test: Selectivity interaction (KinomeScan (DiscoverX)) EUB0000607a GRK4; settings: at 10 µM
[8] = test system: Phosphatidylinositol 4,5-bisphosphate 3-kinase catalytic subunit alpha isoform (Homo sapiens), P42336 [E545K]; settings: at 10 µM
[9] = target: Tyrosine-protein kinase Fer (Homo sapiens) (UniProt P16591); test: Selectivity interaction (ActivX KiNativ screen (kinase selectivity in THP-1 cell lysates)) EUB0000639a FER; assay type: subcellular; settings: lysate, at 0.01 µM
[10] = target: Serine/threonine-protein kinase N1 (Homo sapiens, UniProt Q16512); test: Selectivity interaction (ActivX KiNativ screen (kinase selectivity in THP-1 cell lysates)) EUB0000639a PKN1; assay type: subcellular; settings: lysate, at 0.01 µM
[11] = target: T2, Tyrosine-protein kinase ITK/TSK (Homo sapiens) (UniProt Q08881); test: Selectivity interaction (KinomeScan (DiscoverX)) EUB0001049a ITK; settings: at 1 µM
T2 sequence (whole entry): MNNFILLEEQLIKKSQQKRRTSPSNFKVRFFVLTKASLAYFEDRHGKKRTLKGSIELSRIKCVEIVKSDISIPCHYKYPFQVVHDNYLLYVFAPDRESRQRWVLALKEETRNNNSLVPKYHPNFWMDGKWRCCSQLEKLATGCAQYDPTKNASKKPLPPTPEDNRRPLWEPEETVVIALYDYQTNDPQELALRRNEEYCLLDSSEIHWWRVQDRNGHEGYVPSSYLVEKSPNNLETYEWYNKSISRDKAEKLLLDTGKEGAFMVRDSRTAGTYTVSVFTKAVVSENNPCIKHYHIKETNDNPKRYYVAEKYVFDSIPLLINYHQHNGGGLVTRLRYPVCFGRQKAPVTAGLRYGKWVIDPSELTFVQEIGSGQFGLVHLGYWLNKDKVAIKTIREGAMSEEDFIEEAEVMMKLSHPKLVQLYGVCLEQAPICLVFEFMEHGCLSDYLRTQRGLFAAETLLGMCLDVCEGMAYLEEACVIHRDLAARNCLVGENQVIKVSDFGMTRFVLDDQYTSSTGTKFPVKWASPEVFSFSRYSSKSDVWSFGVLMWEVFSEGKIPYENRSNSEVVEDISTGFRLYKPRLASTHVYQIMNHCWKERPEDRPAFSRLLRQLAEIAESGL

[12] = target: cAMP-dependent protein kinase catalytic subunit alpha (Homo sapiens, UniProt P17612); test: Selectivity interaction (Kinase panel (Z-LYTE Assay)) EUB0001632a PRKACA; settings: at 10 µM
[13] = target: Vascular endothelial growth factor receptor 2 (Homo sapiens, UniProt P35968); test: Selectivity interaction (Kinase panel (Z-LYTE Assay)) EUB0001632a KDR; settings: at 10 µM
[14] = target: Protein kinase C eta type (Homo sapiens) (UniProt P24723); test: Selectivity interaction (KinomeScan (DiscoverX)) EUB0000695a PRKCH; settings: at 100 nM
[15] = target: Serine/threonine-protein kinase N2 (Homo sapiens, UniProt Q16513); test: Selectivity interaction (KinomeScan (DiscoverX)) EUB0000695a PKN2; settings: at 100 nM

Chain of Protein kinase C eta type (Homo sapiens) (P24723 whole entry): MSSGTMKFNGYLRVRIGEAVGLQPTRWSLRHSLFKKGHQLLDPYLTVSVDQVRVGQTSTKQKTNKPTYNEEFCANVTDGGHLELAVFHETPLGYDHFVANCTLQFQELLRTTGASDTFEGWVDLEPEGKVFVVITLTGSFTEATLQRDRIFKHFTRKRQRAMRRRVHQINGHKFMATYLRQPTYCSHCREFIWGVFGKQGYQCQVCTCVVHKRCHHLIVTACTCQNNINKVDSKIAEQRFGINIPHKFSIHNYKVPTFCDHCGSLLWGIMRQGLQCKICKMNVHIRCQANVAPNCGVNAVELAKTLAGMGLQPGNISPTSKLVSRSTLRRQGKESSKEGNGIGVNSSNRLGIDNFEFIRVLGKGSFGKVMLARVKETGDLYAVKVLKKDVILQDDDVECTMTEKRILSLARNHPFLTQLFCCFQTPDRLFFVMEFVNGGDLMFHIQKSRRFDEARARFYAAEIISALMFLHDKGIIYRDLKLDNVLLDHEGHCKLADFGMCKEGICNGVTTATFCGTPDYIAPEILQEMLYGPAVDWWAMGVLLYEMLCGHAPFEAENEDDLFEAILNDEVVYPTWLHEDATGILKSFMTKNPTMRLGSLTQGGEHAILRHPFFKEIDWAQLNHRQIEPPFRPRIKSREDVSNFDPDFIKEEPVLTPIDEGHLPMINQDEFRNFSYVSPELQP
Chain of Serine/threonine-protein kinase N1 (Q16512 2-942 limits assumed): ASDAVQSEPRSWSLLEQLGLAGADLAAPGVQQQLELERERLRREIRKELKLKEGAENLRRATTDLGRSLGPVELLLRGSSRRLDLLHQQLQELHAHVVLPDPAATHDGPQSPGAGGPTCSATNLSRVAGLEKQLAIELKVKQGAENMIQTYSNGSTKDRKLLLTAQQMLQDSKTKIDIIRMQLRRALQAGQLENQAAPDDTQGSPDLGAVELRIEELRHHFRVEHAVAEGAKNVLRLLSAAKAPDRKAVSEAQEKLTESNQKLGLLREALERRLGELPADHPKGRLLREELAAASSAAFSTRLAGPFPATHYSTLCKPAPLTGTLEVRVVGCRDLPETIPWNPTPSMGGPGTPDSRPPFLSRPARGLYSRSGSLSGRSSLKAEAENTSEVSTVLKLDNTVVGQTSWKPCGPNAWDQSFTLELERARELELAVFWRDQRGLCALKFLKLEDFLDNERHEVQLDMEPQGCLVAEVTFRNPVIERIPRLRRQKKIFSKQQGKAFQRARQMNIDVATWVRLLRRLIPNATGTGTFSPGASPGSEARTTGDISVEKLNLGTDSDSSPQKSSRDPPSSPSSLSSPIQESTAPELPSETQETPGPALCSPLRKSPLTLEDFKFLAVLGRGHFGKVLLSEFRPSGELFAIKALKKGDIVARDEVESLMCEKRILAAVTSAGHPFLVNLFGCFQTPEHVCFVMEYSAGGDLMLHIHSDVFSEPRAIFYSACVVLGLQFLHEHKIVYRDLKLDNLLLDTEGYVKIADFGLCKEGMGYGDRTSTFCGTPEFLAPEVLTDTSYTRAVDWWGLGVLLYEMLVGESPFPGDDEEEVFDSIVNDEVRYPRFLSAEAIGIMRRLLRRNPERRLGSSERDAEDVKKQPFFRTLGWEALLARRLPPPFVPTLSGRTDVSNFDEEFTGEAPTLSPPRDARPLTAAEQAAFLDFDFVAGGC
Chain of Protein kinase C theta type (Q04759 whole entry, looked up): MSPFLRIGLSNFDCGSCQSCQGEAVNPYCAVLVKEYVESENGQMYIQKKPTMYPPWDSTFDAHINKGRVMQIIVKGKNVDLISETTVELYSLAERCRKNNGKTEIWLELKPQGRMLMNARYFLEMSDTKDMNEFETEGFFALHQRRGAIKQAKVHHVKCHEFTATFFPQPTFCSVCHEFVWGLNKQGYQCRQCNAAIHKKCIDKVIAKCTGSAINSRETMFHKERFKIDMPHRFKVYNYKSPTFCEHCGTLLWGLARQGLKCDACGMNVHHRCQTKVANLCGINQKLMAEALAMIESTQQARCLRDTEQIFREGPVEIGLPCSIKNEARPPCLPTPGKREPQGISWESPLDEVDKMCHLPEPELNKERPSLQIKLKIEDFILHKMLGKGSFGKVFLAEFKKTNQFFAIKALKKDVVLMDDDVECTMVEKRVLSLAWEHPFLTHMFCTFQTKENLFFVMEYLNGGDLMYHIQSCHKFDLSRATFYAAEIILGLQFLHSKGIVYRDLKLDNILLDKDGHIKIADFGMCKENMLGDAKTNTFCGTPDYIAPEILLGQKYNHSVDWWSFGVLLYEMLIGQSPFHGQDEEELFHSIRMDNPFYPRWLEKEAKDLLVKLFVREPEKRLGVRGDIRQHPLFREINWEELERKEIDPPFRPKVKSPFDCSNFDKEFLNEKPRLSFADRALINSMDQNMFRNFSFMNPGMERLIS
Chain of G protein-coupled receptor kinase 4 (Homo sapiens) (P32298 whole entry, looked up, canonical isoform): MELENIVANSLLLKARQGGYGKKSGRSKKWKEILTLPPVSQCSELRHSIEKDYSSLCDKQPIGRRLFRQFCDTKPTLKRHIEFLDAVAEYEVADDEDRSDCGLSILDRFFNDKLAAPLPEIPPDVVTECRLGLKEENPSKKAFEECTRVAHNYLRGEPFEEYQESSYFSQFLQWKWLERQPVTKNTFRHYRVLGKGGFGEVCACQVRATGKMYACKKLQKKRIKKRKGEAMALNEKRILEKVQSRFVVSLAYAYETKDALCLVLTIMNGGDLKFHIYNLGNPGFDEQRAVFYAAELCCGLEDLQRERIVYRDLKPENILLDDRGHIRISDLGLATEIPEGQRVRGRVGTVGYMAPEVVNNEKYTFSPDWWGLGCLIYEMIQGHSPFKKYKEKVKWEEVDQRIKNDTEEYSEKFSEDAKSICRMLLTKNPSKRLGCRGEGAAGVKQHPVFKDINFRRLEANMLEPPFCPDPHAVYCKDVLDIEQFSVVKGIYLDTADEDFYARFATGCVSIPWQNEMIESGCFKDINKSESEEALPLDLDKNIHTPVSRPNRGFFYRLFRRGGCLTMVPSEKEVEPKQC
Chain of cGMP-inhibited 3',5'-cyclic phosphodiesterase 3A (Q14432 whole entry): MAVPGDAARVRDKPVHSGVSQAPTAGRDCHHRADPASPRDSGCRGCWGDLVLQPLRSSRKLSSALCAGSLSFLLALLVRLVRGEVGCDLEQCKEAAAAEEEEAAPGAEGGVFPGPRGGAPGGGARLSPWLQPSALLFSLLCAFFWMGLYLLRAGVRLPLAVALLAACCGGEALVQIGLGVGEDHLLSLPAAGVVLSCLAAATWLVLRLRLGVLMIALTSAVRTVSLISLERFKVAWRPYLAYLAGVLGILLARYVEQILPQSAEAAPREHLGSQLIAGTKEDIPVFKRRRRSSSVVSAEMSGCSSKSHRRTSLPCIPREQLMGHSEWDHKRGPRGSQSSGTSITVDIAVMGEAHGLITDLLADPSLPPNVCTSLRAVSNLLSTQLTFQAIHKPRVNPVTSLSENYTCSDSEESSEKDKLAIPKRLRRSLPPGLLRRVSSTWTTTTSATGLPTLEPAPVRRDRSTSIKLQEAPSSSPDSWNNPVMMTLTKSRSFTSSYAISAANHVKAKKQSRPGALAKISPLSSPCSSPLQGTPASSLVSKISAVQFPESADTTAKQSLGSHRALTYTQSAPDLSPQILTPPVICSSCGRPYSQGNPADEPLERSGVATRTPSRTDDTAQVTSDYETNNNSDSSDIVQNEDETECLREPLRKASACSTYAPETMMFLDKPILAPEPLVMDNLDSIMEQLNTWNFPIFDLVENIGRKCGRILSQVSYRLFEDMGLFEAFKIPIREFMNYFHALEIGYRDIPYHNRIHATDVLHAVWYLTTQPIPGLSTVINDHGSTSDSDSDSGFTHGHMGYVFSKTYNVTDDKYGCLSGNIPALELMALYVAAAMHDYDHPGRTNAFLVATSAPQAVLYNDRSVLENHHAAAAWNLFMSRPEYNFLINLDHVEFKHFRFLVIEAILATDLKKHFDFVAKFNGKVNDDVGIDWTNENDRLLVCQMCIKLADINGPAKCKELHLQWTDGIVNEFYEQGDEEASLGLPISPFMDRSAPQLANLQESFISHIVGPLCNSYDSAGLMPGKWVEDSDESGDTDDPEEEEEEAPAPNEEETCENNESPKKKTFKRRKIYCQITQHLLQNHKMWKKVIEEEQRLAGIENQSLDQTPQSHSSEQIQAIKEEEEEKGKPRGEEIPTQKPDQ
Chain of Mast/stem cell growth factor receptor Kit (Homo sapiens), P10721 [V559D] (P10721 whole entry V559D): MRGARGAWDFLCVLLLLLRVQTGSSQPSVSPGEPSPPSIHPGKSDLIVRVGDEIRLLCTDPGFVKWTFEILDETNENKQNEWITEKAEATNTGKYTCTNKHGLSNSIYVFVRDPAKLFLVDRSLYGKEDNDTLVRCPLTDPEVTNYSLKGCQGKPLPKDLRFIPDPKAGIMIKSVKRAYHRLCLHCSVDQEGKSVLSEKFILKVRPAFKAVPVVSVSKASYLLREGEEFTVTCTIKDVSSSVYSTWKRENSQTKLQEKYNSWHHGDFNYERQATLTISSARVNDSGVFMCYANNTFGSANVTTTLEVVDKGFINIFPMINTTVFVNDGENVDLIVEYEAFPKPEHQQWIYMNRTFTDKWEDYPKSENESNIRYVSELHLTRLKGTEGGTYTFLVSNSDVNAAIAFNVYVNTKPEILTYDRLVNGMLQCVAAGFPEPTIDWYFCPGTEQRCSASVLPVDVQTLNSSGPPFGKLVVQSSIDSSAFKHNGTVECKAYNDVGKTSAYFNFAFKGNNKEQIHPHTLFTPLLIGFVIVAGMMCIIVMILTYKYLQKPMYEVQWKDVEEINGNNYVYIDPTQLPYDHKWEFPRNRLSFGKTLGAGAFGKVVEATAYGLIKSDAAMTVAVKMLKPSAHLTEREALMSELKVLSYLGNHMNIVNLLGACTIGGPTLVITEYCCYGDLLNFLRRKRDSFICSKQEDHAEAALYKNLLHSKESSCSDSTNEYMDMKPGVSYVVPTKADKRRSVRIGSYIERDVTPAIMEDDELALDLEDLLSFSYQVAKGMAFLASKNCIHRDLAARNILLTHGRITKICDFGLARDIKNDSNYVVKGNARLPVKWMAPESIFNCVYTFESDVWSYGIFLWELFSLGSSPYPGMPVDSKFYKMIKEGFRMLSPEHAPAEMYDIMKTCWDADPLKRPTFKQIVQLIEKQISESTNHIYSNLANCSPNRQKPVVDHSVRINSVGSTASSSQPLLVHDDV

SMILES: CC[C@@H](Nc1c(C#N)c(-c2ccc(-c3cccc(C)c3F)cc2)nc2cnccc12)C(=O)O [BAY-091]
- % of inhibition [1]: 74%

- % of control [2]: 100%
SMILES: CCN(CC)CCCCNc1ncc2cc(-c3cc(OC)cc(OC)c3)c(NC(=O)NC(C)(C)C)nc2n1

SMILES: Nc1cnc(N2CCc3cc(S(=O)(=O)Nc4c(F)cc(Cl)cc4F)cc(N4CCCC4=O)c32)nc1 [TP-020n]
- % of control [3]: 100%

- % of control [4]: 98%
SMILES: CC(=O)Nc1cccc(-n2c(=O)n(C3CC3)c(=O)c3c(Nc4ccc(I)cc4F)n(C)c(=O)c(C)c32)c1

SMILES: CNC(=O)Nc1ccc(-c2nc(N3CC4CCC(C3)O4)c3cnn(C4CCC5(CC4)OCCO5)c3n2)cc1
- % of inhibition [5]: 1%
- % of inhibition [6]: 5%
- % of control [7]: 100%

SMILES: COCC(=O)NC/C=C/c1ccc2ncnc(Nc3ccc(Oc4ccc(C)nc4)c(C)c3)c2c1 [CP-724714]
- % of control [8]: 100%

- % of inhibition [9]: -9%
- % of inhibition [10]: -9.7%
SMILES: CC[C@@H]1[C@H](F)C(=O)N[C@@H]1COc1nccc2cc(C(N)=O)c(OC)cc12 [ZIMLOVISERTIB]

SMILES: COc1cc(Nc2nc(C)cc(-c3cnn4nc(OC)ccc34)n2)cc(C(F)(F)F)c1
- % of control [11]: 82%

- % of control [12]: 1.33%
- % of control [13]: 0.298%
SMILES: Cn1cc(-n2cnc3c(NCc4nc5cc(Cl)c(Cl)cc5[nH]4)nc(N4CCOCC4)nc32)cn1

SMILES: Cc1cc(F)c(C(=O)Nc2cccc(-c3nncn3C(C)C)n2)cc1-n1cnc(C2CC2)c1
- % of control [14]: 91%
- % of control [15]: 63%
